In patent US9222949B2, “Salvinorin immunoassay” (priority 2009, dated 2015):
≈ marks a conversion by molar mass, not a printed value.

Experiments:
[1] = system: antisera generated to Immunogen I (hapten A-BTG); experiment: competitive microtiter plate assay (ELISA) for salvinorin A and salvinorin B; format: binding, sheep
[2] = in vivo; cited from earlier work
[3] = Conjugate I, calibrator 0.16 ng/ml
[4] = Conjugate I, calibrator 0.31 ng/ml
[5] = Conjugate I, calibrator 0.63 ng/ml
[6] = Conjugate I, calibrator 1.25 ng/ml
[7] = Conjugate I, calibrator 2.50 ng/ml
[8] = Conjugate I, calibrator 5.00 ng/ml
[9] = Conjugate I, calibrator 10.00 ng/ml
[10] = Conjugate II, calibrator 0.16 ng/ml
[11] = Conjugate II, calibrator 0.31 ng/ml
[12] = Conjugate II, calibrator 0.63 ng/ml
[13] = Conjugate II, calibrator 1.25 ng/ml
[14] = Conjugate II, calibrator 2.50 ng/ml
[15] = Conjugate II, calibrator 5.00 ng/ml
[16] = Conjugate II, calibrator 10.00 ng/ml

Structure (SMILES) | % CR (percentage cross-reactivity based on 100% specificity to salvinorin A) ([1]; Conjugate I) [%] | IC50 (standard concentration which produces 50% B/Bo) ([1]; Conjugate I) [ng/mL] | % B/B0 [1, 3] [%] | % B/B0 [1, 4] [%] | % B/B0 [1, 5] [%] | % B/B0 [1, 6] [%] | % B/B0 [1, 7] [%] | % B/B0 [1, 8] [%] | % B/B0 [1, 9] [%] | % CR (percentage cross-reactivity based on 100% specificity to salvinorin A) ([1]; Conjugate II) [%] | IC50 (standard concentration which produces 50% B/Bo) ([1]; Conjugate II) [ng/mL] | % B/B0 [1, 10] [%] | % B/B0 [1, 11] [%] | % B/B0 [1, 12] [%] | % B/B0 [1, 13] [%] | % B/B0 [1, 14] [%] | % B/B0 [1, 15] [%] | % B/B0 [1, 16] [%] | action of duration [2] [min]
COC(=O)[C@@H]1C[C@H](OC(C)=O)C(=O)[C@H]2[C@@]1(C)CC[C@H]1C(=O)O[C@H](c3ccoc3)C[C@]21C [Salvinorin A] | 100 | 0.277 (≈ 0.641 nM) | 62 | 48 | 36 | 26 | 18 | 13 | 9 | 100 | 0.331 (≈ 0.765 nM) | 64 | 51 | 39 | 30 | 20 | 14 | 9 | 10 to 15
COC(=O)C1CC(O)C(=O)C2C1(C)CCC1C(=O)OC(c3ccoc3)CC12C (stereo not shown) [Salvinorin B] | 9.52 | 2.909 (≈ 7.45 nM) | 84 | 74 | 70 | 63 | 50 | 43 | 33 | 12.00 | 2.758 (≈ 7.06 nM) | 85 | 78 | 71 | 61 | 51 | 43 | 33 | –
